Results: patent publication US9981944B2, “GDF-8 inhibitors” (Rigel Pharmaceuticals, Inc., priority 2015, dated 2018)
Where a name gives a salt, the structure may show the parent alone.

How the values were obtained:
[1] = system: GDF8 signaling (p-SMAD-3 Ser423/425); assay: AlphaScreen SureFire SMAD3 (p-Ser423/425) assay, GDF8 stimulated (GDF pSMAD (MPC11)); format: cell-based; conditions: Mus musculus, MPC-11, inhibition of GDF8 signaling
[2] = system: TGF-β signaling (p-SMAD-3 Ser423/425); assay: AlphaScreen SureFire SMAD3 (p-Ser423/425) assay, TGF-β stimulated (TGF-β pSMAD (MPC-11)); format: cell-based
[3] = biological target: HIS-TGFβR2 WT (Homo sapiens (Human), UniProt P37173); assay: HTRF probe displacement assay, HIS-TGFβR2 WT; format: binding; conditions: 1 nM HIS-TGFβR2 WT, 1 hour at room temperature, read-out: TGFBR2WT IC50
HIS-TGFβR2 WT, sequence (P37173 23-567): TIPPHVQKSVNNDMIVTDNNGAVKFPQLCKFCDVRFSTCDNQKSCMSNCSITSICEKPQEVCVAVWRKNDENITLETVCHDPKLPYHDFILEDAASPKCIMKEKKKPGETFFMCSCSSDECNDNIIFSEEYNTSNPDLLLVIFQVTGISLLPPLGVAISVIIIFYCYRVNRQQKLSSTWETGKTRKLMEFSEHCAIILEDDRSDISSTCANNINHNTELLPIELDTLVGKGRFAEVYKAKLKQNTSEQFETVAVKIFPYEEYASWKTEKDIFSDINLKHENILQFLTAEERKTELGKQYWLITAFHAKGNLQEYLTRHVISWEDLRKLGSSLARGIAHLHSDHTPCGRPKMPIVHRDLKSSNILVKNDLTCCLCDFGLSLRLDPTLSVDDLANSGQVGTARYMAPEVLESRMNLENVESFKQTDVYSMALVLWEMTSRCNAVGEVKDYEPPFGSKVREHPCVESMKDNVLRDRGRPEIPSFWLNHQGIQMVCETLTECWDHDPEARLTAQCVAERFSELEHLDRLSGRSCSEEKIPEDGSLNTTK
Procedure: (§1) Compounds were dissolved at 10 mM in dimethylsulfoxide (DMSO) and evaluated at eleven concentrations. IC50 values were derived by non-linear regression analysis.

[4] = biological target: HIS-TGFβR1 T204D (Homo sapiens (Human), UniProt P36897, T204D); assay: HTRF probe displacement assay, HIS-TGFβR1 T204D; format: binding; conditions: 1 nM HIS-TGFβR1 T204D, 1 hour at room temperature, read-out: TGFBR1T204D IC50
HIS-TGFβR1 T204D, sequence (P36897 34-503 T204D): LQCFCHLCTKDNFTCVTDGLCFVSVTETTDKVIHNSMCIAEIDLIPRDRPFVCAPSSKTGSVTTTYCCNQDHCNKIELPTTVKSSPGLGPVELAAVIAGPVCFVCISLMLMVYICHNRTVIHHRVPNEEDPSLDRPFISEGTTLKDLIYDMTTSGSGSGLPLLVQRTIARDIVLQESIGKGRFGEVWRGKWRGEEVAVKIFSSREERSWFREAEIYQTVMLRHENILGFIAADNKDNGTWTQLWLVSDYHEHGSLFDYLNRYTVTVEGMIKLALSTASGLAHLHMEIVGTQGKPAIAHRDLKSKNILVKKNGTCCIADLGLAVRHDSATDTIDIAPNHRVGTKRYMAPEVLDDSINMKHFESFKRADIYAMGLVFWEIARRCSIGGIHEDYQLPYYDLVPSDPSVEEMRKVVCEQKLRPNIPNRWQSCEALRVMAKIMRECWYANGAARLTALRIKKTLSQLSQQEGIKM
Procedure: as §1

[5] = Mus musculus, MPC-11, inhibition of TGF-β signaling

Row | SMILES | IC50 [1] [nM] | IC50 [2, 5] [nM] | IC50 [3] [nM] | IC50 [4] [nM] | further results
1 | N#Cc1cnc2ccc(-c3cccnc3-c3ccccn3)cn12 [Compound 7, 6-([2,2′-Bipyridin]-3-yl)imidazo[1,2-a]pyridine-3-carbonitrile] | 8510 | – | – | – | –
2 | NC(=O)c1cnc2ccc(-c3cccnc3-c3ccccn3)cn12 [Compound 9, 6-([2,2′-Bipyridin]-3-yl)imidazo[1,2-a]pyridine-3-carboxamide] | 119 | 281 | – | – | –
3 | Cc1cccc(-c2ncccc2-c2ccc3ncc(C#N)n3c2)n1 [Compound 3, 6-(6′-Methyl-[2,2′-bipyridin]-3-yl)imidazo[1,2-a]pyridine-3-carbonitrile] | 734 | 1710 | – | – | –
4 | Cc1cccc(-c2ncccc2-c2ccc3ncnc(N)c3c2)n1 [Compound 2A, 6-(6′-methyl-[2,2′-bipyridin]-3-yl)quinazolin-4-aminium 2,2,2-trifluoroacetate] | 129 | – | – | – | IC50 ([2]; inhibition of TGF-β signaling, 2,2,2-trifluoroacetate): 251 nM
5 | c1ccc(-c2ncccc2-c2ccc3ncnn3c2)nc1 [Compound 8, 6-([2,2′-Bipyridin]-3-yl)-[1,2,4]triazolo[1,5-a]pyridine] | 8060 | 23600 | – | – | –
6 | Cc1cccc(-c2ncccc2-c2ccnc3ccccc23)n1 [Compound 1, 4-(6′-Methyl-[2,2′-bipyridin]-3-yl)quinolone] | 19700 | 10600 | – | – | –
7 | Cc1cccc(-c2ncccc2-c2ccn3ncnc3c2)n1 [Compound 5, 7-(6′-Methyl-[2,2′-bipyridin]-3-yl)-[1,2,4]triazolo[1,5-a]pyridine] | 280 | 1070 | – | – | –
8 | Cc1cccc(-c2ncccc2-c2ccc3ncnc(N)c3c2)n1 [Compound 2B, 6-(6′-methyl-[2,2′-bipyridin]-3-yl)quinazolin-4-aminium formate] | – | – | – | – | IC50 ([2]; inhibition of TGF-β signaling, formate): 112 nM
9 | CS(=O)(=O)Nc1cccc(-c2ncccc2-c2ccc3ncc(C#N)n3c2)n1 [Compound 44, N-(3′-(3-cyanoimidazo[1,2-a]pyridin-6-yl)-[2,2′-bipyridin]-6-yl)methanesulfonamide] | – | – | > 15000 | 1980 | –
10 | Nc1ncnc2ccc(-c3cccnc3-c3cccc(F)n3)cc12 [Compound 11A, 6-(6′-fluoro-[2,2′-bipyridin]-3-yl)quinazolin-4-aminium 2,2,2-trifluoroacetate] | 229 | 1170 | – | – | –
11 | N#Cc1cnn2ccc(-c3cccnc3-c3cccc(C(F)(F)F)n3)nc12 [Compound 121, 5-(6′-(trifluoromethyl)-[2,2′-bipyridin]-3-yl)pyrazolo[1,5-a]pyrimidine-3-carbonitrile] | – | – | > 15000 | 854 | –
12 | Cc1nc(-c2ncccc2-c2ccc3ncc(C(N)=O)n3n2)ccc1F [Compound 43, 6-(5′-fluoro-6′-methyl-[2,2′-bipyridin]-3-yl)imidazo[1,2-b]pyridazine-3-carboxamide] | – | – | > 15000 | 17 | –
13 | CC(=O)Nc1ccc(-c2ccc3ncc(C(N)=O)n3c2)c(-c2cccc(C)n2)n1 [Compound 95, 6-(6-acetamido-6′-methyl-[2,2′-bipyridin]-3-yl)imidazo[1,2-a]pyridine-3-carboxamide] | – | – | > 15000 | 353 | –
14 | Nc1ncnc2ccc(-c3cccnc3-c3ccccn3)cc12 [Compound 12A, 6-([2,2′-bipyridin]-3-yl)quinazolin-4-aminium formate] | 1310 | 5480 | – | – | –
15 | NC(=O)c1cnc2ccc(-c3cccnc3-c3ccc(C(=O)O)cn3)cn12 [Compound 27, 3′-(3-carbamoylimidazo[1,2-a]pyridin-6-yl)-[2,2′-bipyridine]-5-carboxylic acid] | – | – | > 15000 | 14300 | –
16 | Cc1cccc(-c2ncccc2-c2ccc3ncc(C(N)=O)n3c2)n1 [Compound 6, 6-(6′-Methyl-[2,2′-bipyridin]-3-yl)imidazo[1,2-a]pyridine-3-carboxamide] | 28.6 | 53.8 | – | – | –
17 | Fc1ccc(-c2ncccc2-c2ccc3[nH]ncc3c2)nc1 [Compound 116, 5-(5′-fluoro-[2,2′-bipyridin]-3-yl)-1H-indazole] | – | – | > 15000 | 14 | –
18 | Cc1cccc(-c2ncccc2-c2ccc3ncnn3c2)n1 [Compound 4, 6-(6′-Methyl-[2,2′-bipyridin]-3-yl)-[1,2,4]triazolo[1,5-a]pyridine] | 215 | 501 | – | – | –
